Assay results reported in publication PMC7151106 (Pharmaceutics, 2020).

How the values were obtained:
Format in all cases: cell-based
SGLT1 = biological target: T1, SGLT1 (Homo sapiens, UniProt P13866); assay: Inhibition of [14C]AMG uptake in CHO-SGLT1 cells; settings: 10 μM [14C]AMG uptake, 2 h, CHO-SGLT1 minus mock; mean ± SD, triplicate
T1 construct: host or cells: CHO
T1 sequence (P13866 1-664): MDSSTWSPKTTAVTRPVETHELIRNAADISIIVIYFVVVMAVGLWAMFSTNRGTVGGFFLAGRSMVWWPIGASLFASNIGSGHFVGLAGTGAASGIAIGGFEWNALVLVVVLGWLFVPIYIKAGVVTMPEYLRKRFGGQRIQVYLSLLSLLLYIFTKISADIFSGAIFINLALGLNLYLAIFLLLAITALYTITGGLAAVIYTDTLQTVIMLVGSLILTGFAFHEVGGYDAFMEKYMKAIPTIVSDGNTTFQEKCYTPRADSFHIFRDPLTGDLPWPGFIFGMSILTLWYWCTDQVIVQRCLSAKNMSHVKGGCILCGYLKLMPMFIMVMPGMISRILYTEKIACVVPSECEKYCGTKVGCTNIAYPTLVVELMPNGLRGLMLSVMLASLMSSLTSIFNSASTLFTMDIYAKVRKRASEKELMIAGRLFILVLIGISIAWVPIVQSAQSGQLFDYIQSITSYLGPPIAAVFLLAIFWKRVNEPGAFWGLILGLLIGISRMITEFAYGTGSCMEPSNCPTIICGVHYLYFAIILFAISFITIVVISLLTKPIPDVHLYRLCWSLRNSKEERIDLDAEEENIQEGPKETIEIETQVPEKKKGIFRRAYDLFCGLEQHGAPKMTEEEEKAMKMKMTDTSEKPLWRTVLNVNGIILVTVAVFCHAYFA
Description: (§1) CHO cells overexpressing SGLT1 and SGLT2 cells (CHO-SGLT1 and -SGLT2) and CHO-mock cells were characterized as previously described. Cells were maintained in RPMI1640 medium supplemented with 10% fetal bovine serum and 200 µg/mL G418 at 37 °C in 5% CO2 conditions. CHO-SGLT1 and -SGLT2 cells were seeded at a density of 1 × 10^5 cells/well in 96-well plates. After 24 h, the growth medium was discarded from the cells, and the cells were washed with pre-warmed Na^+-free buffer (10 mM HEPES, 5 mM Tris, 140 mM choline chloride, 2 mM KCl, 1 mM CaCl2, 1 mM MgCl2, pH7.4) and incubated for 1 h in Na^+-free buffer. After replacing Na^+-free buffer with Na^+ gradient buffer (10 mM HEPES, 5 mM Tris, 140 mM NaCl, 2 mM KCl, 1 mM CaCl2, 1 mM MgCl2, pH7.4) containing 10 µM [^14C]AMG, the uptake of [^14C]AMG into the CHO-mock cells and CHO-SGLT1 and -SLGT2 cells was measured for 0.5, 1, 1.5, 2, and 3 h. After a predetermined incubation time, cells were washed three times with 200 µL of ice-cold Na^+-free buffer immediately after placing the plates on ice. Then, the cells were lysed with 10% SDS, and the cell lysates were mixed with Optiphase cocktail solution. Thereafter, the radioactivity of the cell lysates was measured using a liquid scintillation counter.
(§2) After 2 h, cells were washed three times with 200 µL of ice-cold Na^+-free buffer and the cells were lysed with 10% SDS (40 µL), followed by adding Optiphase cocktail solution (200 µL). The radioactivity of the cell lysates was measured using a liquid scintillation counter. The SGLT1 or SGLT2-mediated uptake of [^14C]AMG was calculated by the subtraction of the uptake rates of [^14C]AMG into the mock cells from those of the CHO-SGLT1 and -SLGT2 cells. In the inhibition studies, the percentages of the transport rate of AMG with or without SGLT2 inhibitors were calculated and the data were fitted to an inhibitory effect model. The IC50 (the concentration of the inhibitor to show half-maximal inhibition) values were calculated using Sigma Plot ver.10.0 (Systat Software, Inc.; San Jose, CA, USA).

SGLT2 [1] = biological target: T2, SGLT2 (Homo sapiens, UniProt P31639); assay: Inhibition of [14C]AMG uptake in CHO-SGLT2 cells; settings: for IC50: 10 μM [14C]AMG uptake, 2 h, CHO-SGLT2 minus mock, mean ± SD, triplicate
T2 construct: host or cells: CHO
T2 sequence (P31639 1-672): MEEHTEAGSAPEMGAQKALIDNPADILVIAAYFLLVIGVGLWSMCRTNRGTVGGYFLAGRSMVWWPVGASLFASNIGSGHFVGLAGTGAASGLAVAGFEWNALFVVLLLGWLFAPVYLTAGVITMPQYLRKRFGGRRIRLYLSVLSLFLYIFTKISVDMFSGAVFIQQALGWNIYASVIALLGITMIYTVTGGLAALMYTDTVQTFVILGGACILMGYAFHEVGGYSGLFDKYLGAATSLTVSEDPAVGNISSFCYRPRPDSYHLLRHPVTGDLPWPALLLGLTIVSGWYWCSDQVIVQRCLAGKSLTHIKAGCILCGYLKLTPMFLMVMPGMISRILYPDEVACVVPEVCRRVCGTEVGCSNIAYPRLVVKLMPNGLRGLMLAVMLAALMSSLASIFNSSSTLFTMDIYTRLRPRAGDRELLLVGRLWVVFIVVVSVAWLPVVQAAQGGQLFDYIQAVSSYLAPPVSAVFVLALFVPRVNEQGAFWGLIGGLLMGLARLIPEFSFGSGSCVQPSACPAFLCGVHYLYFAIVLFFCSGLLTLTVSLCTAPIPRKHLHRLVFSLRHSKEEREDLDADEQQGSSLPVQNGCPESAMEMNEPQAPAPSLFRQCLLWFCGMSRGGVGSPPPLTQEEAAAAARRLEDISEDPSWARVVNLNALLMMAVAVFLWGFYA
Description: as §1, §2

SGLT2 [2] = biological target: T2, SGLT2; assay: Time dependency of SGLT2 inhibition (preincubation) in CHO-SGLT2 cells; settings: for IC50: 10 μM [14C]AMG, 2 h, CHO-SGLT2; for Time dependency of SGLT2 inhibition: pretreatment 0, 1, 2 h
Description: After 2 h of incubation, the radioactivity of the cell lysate was measured following the same sample preparation method described above.

SGLT2 [3] = biological target: T2, SGLT2; assay: Recovery of SGLT2 activity after washout following 24 h exposure in CHO-SGLT2 cells
Description: After 24 h, the RPMI1640 medium was replaced with pre-warmed fresh RPMI1640 medium and incubated for 1, 2, 3, 5, and 6 h, and proceeded another pre-incubation with Na^+-free buffer for 1 h. Then, after replacing Na^+-free buffer with Na^+ gradient buffer containing 10 µM [^14C]AMG, the uptake of [^14C]AMG into the CHO-SGLT2 cells was measured for 2 h. After 2 h of incubation, the radioactivity of the cell lysate was measured following the same sample preparation method described above.

[4] = without preincubation, read-out: IC50 (0 h)

Row | Structure (SMILES) | IC50 (SGLT1) [nM] | Selectivity (IC50 Ratio of SGLT1/SGLT2) (SGLT2 [1]) | IC50 (SGLT2 [1]) [nM] | IC50 (SGLT2 [2]; IC50 (1 h), preincubation 1 h) [nM] | IC50 (SGLT2 [2]; IC50 (2 h), preincubation 2 h) [nM] | Time dependency of SGLT2 inhibition (SGLT2 [2]) | IC50 (SGLT2 [2]; [4]) [nM] | Time after drug removal to recovery of SGLT2 activity to the control level (SGLT2 [3]; 0.2–200 nM) [h] | Time after drug removal at which SGLT2 activity had not recovered (SGLT2 [3]; 200 nM) [h]
1 | OC[C@H]1O[C@@H](c2ccc(F)c(Cc3cc4ccccc4s3)c2)[C@H](O)[C@@H](O)[C@@H]1O [Ipragliflozin, ipragliflozin] | 2330 ± 378 | 261 | 8.9 ± 1.7 | 11 | 9.9 | time-independent | 10.6 | 4 | 
2 | OC[C@H]1O[C@@H](c2cc(Cc3ccc(C4CC4)cc3)c(Cl)c3c2CCO3)[C@H](O)[C@@H](O)[C@@H]1O [DWP16001] | 549 ± 140 | 667 | 0.8 ± 0.3 | 0.7 | 0.8 | time-independent | 0.7 |  | 8
